{"source": "patent US20230226068A1", "about": "“METHOD, SYSTEM, FORMULATION AND KIT FOR THE TREATMENT OF ONYCHOMYCOSIS” (priority 2021, published 2023)", "origin": "cited, not measured here", "settings": "for side effects: po", "note": "Read-outs that look alike come from different tables or passages of the source.", "data": [{"compound": "CCC(C)(C)c1ccc(CC(C)CN2C[C@@H](C)O[C@@H](C)C2)cc1", "note": "(stereo partly shown) [Amorolfine]", "values": [{"measurement": "safety profile", "setting": "in vivo", "value": "local skin irritations"}]}, {"compound": "Cc1cc(C2CCCCC2)n(O)c(=O)c1", "note": "[Ciclopirox]", "values": [{"measurement": "safety profile", "setting": "in vivo", "value": "local skin irritations"}]}, {"compound": "C=C1CCN([C@H](C)[C@](O)(Cn2cncn2)c2ccc(F)cc2F)CC1", "note": "[Efinaconazole]", "values": [{"measurement": "safety profile", "setting": "in vivo", "value": "local skin irritations"}]}, {"compound": "OC(Cn1cncn1)(Cn1cncn1)c1ccc(F)cc1F", "note": "[Fluconazole]", "values": [{"measurement": "side effects", "setting": "in vivo", "value": "liver enzyme abnormalities, headaches, as well as gastrointestinal problems or rashes"}]}, {"compound": "CCC(C)n1ncn(-c2ccc(N3CCN(c4ccc(OCC5COC(Cn6cncn6)(c6ccc(Cl)cc6Cl)O5)cc4)CC3)cc2)c1=O", "note": "(stereo not shown) [Itraconazole]", "values": [{"measurement": "side effects", "setting": "in vivo", "value": "liver enzyme abnormalities, headaches, as well as gastrointestinal problems or rashes"}]}, {"compound": "OB1OCc2cc(F)ccc21", "note": "[Tavaborole]", "values": [{"measurement": "safety profile", "setting": "topical treatment", "value": "local skin irritations"}]}, {"compound": "CN(C/C=C/C#CC(C)(C)C)Cc1cccc2ccccc12", "note": "[Terbinafine]", "values": [{"measurement": "side effects", "setting": "in vivo", "value": "liver enzyme abnormalities, headaches, as well as gastrointestinal problems or rashes"}]}]}
